{"source": "paper PMC4838859", "about": "“Genetically encoded photocrosslinkers locate the high-affinity binding site of antidepressant drugs in the human serotonin transporter” (Nature Communications, 2016)", "key": {"[1]": {"tested_on": "hSERT S2-binding site mutants (W103azF, Y107azF, W182azF, Y487azF, K490azF)", "assay": "Ultraviolet-induced photocrosslinking of [3H]labelled drug in HEK293T cells", "conditions": "100 nM [3H]drug, 2 h 4 °C, UV 15 min; five S2 azF mutants"}, "hSERT Y95azF [2]": {"target": "T1, hSERT Y95azF (Homo sapiens, UniProt P31645)", "T1 sequence (P31645 whole entry)": "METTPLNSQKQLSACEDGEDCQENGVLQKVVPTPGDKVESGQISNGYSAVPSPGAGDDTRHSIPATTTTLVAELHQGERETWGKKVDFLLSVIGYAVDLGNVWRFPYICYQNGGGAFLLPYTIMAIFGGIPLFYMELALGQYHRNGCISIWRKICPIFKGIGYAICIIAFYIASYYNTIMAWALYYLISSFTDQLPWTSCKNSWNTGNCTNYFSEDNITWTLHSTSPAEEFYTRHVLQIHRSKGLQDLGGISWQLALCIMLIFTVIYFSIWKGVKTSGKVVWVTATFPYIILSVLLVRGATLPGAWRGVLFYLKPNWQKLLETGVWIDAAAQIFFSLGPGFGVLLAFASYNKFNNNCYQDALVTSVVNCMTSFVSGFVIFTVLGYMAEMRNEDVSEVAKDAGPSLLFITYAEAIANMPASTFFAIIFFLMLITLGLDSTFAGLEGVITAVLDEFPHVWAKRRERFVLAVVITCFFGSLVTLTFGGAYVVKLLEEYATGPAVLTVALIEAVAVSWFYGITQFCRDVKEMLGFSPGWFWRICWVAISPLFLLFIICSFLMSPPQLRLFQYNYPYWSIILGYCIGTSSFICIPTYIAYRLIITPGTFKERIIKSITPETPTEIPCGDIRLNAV", "assay": "[3H]5-HT uptake assay (kinetics and uptake inhibition) in HEK293T cells"}, "WT hSERT [3]": {"target": "T2, WT hSERT (Homo sapiens, UniProt P31645)", "T2 sequence (P31645 whole entry)": "as above", "assay": "Saturation binding of [3H]vortioxetine / [3H]imipramine to HEK293T membranes expressing hSERT", "design": "expressed in transfected cells; host or cells: HEK293T", "conditions": "[3H]ligand saturation binding"}, "SERT WT [4]": {"target": "T3, SERT WT (Homo sapiens, UniProt P31645)", "T3 sequence (P31645 whole entry)": "as above", "assay": "[3H]5-HT saturation uptake in the presence of a fixed concentration of vortioxetine (competitive inhibition)", "format": "cell-based", "design": "expressed in transfected cells; host or cells: HEK293T", "conditions": "control 4.21 ± 0.45"}, "hSERT Y107azF": {"target": "hSERT Y107azF (Homo sapiens, UniProt P31645)", "sequence (P31645 whole entry)": "as above", "assay": "[3H]5-HT uptake assay (kinetics and uptake inhibition) in HEK293T cells"}, "hSERT Y175azF": {"target": "hSERT Y175azF (Homo sapiens, UniProt P31645)", "assay": "[3H]5-HT uptake assay (kinetics and uptake inhibition) in HEK293T cells", "conditions": "[3H]5-HT uptake inhibition, Y175azF (S1 mutant); mean ± s.e.m."}, "hSERT F341azF [5]": {"target": "T4, hSERT F341azF (Homo sapiens, UniProt P31645)", "T4 sequence (P31645 whole entry)": "as above", "assay": "[3H]5-HT uptake assay (kinetics and uptake inhibition) in HEK293T cells", "conditions": "[3H]5-HT uptake inhibition, F341azF (S1 mutant); mean ± s.e.m."}, "hSERT F335azF": {"target": "hSERT F335azF (Homo sapiens, UniProt P31645)", "assay": "[3H]5-HT uptake assay (kinetics and uptake inhibition) in HEK293T cells", "conditions": "[3H]5-HT uptake inhibition, F335azF (S1 mutant); mean ± s.e.m."}, "WT hSERT [6]": {"target": "T2, WT hSERT", "assay": "Ultraviolet-induced photocrosslinking of [3H]labelled drug in HEK293T cells", "conditions": "100 nM [3H]drug, 2 h 4 °C, UV 15 min"}, "hSERT W103azF": {"target": "hSERT W103azF (Homo sapiens, UniProt P31645)", "sequence (P31645 whole entry)": "as above", "assay": "[3H]5-HT uptake assay (kinetics and uptake inhibition) in HEK293T cells", "conditions": "[3H]5-HT uptake inhibition, W103azF (S2 mutant); mean ± s.e.m."}, "SERT WT [7]": {"target": "T3, SERT WT", "assay": "[3H]5-HT uptake assay (kinetics and uptake inhibition) in HEK293T cells"}, "hSERT W182azF": {"target": "hSERT W182azF (Homo sapiens, UniProt P31645)", "assay": "[3H]5-HT uptake assay (kinetics and uptake inhibition) in HEK293T cells", "conditions": "[3H]5-HT uptake inhibition, W182azF (S2 mutant); mean ± s.e.m."}, "hSERT Y95azF [8]": {"target": "T1, hSERT Y95azF", "conditions": "100 nM [3H]drug, 2 h 4 °C, UV 15 min, 50–100 kDa segment"}, "hSERT I168azF": {"target": "hSERT I168azF (Homo sapiens, UniProt P31645)", "sequence (P31645 whole entry)": "as above", "assay": "[3H]5-HT uptake assay (kinetics and uptake inhibition) in HEK293T cells"}, "hSERT F341azF [9]": {"target": "T4, hSERT F341azF", "assay": "Ultraviolet-induced photocrosslinking of [3H]labelled drug in HEK293T cells"}, "hSERT K490azF": {"target": "hSERT K490azF (Homo sapiens, UniProt P31645)", "sequence (P31645 whole entry)": "as above", "assay": "[3H]5-HT uptake assay (kinetics and uptake inhibition) in HEK293T cells", "conditions": "[3H]5-HT uptake inhibition, K490azF (S2 mutant); mean ± s.e.m."}, "hSERT Y487azF": {"target": "hSERT Y487azF (Homo sapiens, UniProt P31645)", "assay": "[3H]5-HT uptake assay (kinetics and uptake inhibition) in HEK293T cells", "conditions": "[3H]5-HT uptake inhibition, Y487azF (S2 mutant); mean ± s.e.m."}}, "data": [{"smiles": "CN(C)CCCN1c2ccccc2CCc2ccccc21", "note": "[imipramine]", "values": [{"measurement": "ultraviolet-induced crosslinking (radioactivity signal vs non-UV control)", "setting": "[1]", "result": "did not crosslink"}]}, {"smiles": "Cc1ccc(Sc2ccccc2N2CCNCC2)c(C)c1", "note": "[vortioxetine]", "values": [{"measurement": "decrease in potency relative to WT hSERT", "setting": "hSERT Y95azF [2]; Y95azF vs WT, Ki in [3H]5-HT uptake inhibition", "result": 6, "unit": "fold"}, {"measurement": "Ki", "setting": "hSERT Y95azF [2]; [3H]5-HT uptake inhibition, Y95azF (S1 mutant), mean ± s.e.m.", "result": "1.24 ± 0.125", "unit": "µM"}, {"measurement": "Kd", "setting": "WT hSERT [3]; WT hSERT C-terminally fused to 1D4 tag, mean±s.e.m.", "result": "0.0063 ± 0.0007", "unit": "µM"}, {"measurement": "Kd", "setting": "WT hSERT [3]; WT hSERT without 1D4 tag", "result": "0.0061 ± 0.0011", "unit": "µM"}, {"measurement": "Vmax of 5-HT uptake in presence of inhibitor", "setting": "SERT WT [4]; 0.75 µM vortioxetine", "result": "4.19 ± 0.50", "unit": "pmol min-1 per well"}, {"measurement": "Vmax of 5-HT uptake in presence of inhibitor", "setting": "SERT WT [4]; 1 µM vortioxetine", "result": "4.03 ± 0.36", "unit": "pmol min-1 per well"}, {"measurement": "increase in potency (more sensitive) relative to WT hSERT", "setting": "hSERT Y107azF; Y107azF vs WT, Ki in [3H]5-HT uptake inhibition", "result": 5, "unit": "fold"}, {"measurement": "Ki", "setting": "hSERT Y107azF; [3H]5-HT uptake inhibition, Y107azF (S2 mutant), mean ± s.e.m.", "result": "0.038 ± 0.009", "unit": "µM"}, {"measurement": "Ki", "setting": "hSERT Y175azF", "result": "0.053 ± 0.006", "unit": "µM"}, {"measurement": "Ki", "setting": "hSERT F341azF [5]", "result": "0.043 ± 0.005", "unit": "µM"}, {"measurement": "Ki", "setting": "hSERT F335azF", "result": "0.054 ± 0.009", "unit": "µM"}, {"measurement": "ultraviolet-induced crosslinking (radioactivity signal)", "setting": "WT hSERT [6]", "result": "no radioactivity signal was observed"}, {"measurement": "Ki", "setting": "hSERT W103azF", "result": "0.149 ± 0.012", "unit": "µM"}, {"measurement": "Ki", "setting": "SERT WT [7]", "result": "0.202 ± 0.019", "unit": "µM"}, {"measurement": "Ki", "setting": "hSERT W182azF", "result": "0.074 ± 0.009", "unit": "µM"}, {"measurement": "ultraviolet-induced crosslinking (radioactivity signal vs non-UV control)", "setting": "[1]", "result": "indistinguishable"}, {"measurement": "ultraviolet-induced crosslinking (radioactivity signal vs non-UV control)", "setting": "hSERT Y95azF [8]", "result": "no signal was detected"}, {"measurement": "increase in potency (more sensitive) relative to WT hSERT", "setting": "hSERT I168azF; I168azF vs WT, Ki in [3H]5-HT uptake inhibition", "result": 10, "unit": "fold"}, {"measurement": "Ki", "setting": "hSERT I168azF; [3H]5-HT uptake inhibition, I168azF (S1 mutant), mean ± s.e.m.", "result": "0.019 ± 0.003", "unit": "µM"}, {"measurement": "ultraviolet-induced crosslinking (radioactivity signal vs non-UV control)", "setting": "hSERT F341azF [9]; 100 nM [3H]drug, 2 h 4 °C, UV 15 min, 50–100 kDa segment", "result": "significant ultraviolet-dependent radioactivity signal was detected"}, {"measurement": "displacement of crosslinking radioactivity signal by unlabelled inhibitor", "setting": "hSERT F341azF [9]; 100 μM unlabelled inhibitor added before ultraviolet exposure", "result": "full displacement"}, {"measurement": "Ki", "setting": "hSERT K490azF", "result": "0.056 ± 0.02", "unit": "µM"}, {"measurement": "Ki", "setting": "hSERT Y487azF", "result": "0.096 ± 0.016", "unit": "µM"}]}]}
